Laboratory results from US11725015B2, “Macrocyclic compound and uses thereof” (President and Fellows of Harvard College, priority 2017, dated 2023).

What was measured:
[1] = test system: human gastric cancer cell line MKN-28; assay: MKN-28 growth inhibition assay; assay type: cell-based; conditions: 3 days incubation, CellTiter-Glo
Procedure: (§1) In this assay, the growth inhibitory activities of test compounds in human gastric cancer cell lines NCI-N87 and MKN-28 were measured, respectively. NCI-N87 and MKN-28 cells were maintained in RPMI-1640 medium containing 10% FBS, penicillin and streptomycin in a 5% CO2 incubator (37° C.). To each well of a 96-well plate (Becton, Dickinson and Company, 353219), 100 μL of NCI-N87 or MKN-28 cell suspension adjusted to a concentration of 3×10^4 cells/mL with the culture medium was added, and the cells were incubated overnight in a 5% CO2 incubator (37° C.). On the next day, 100 μL of Compound (1) or Halichondrin B in three-fold dilution series suspended in the culture medium was added to each well, and the resultant was incubated for 3 days in a 5% CO2 incubator (37° C.). Then, cell viability was determined by CellTiter-Glo® Luminescent Cell Viability Assay (Promega) with EnVision 2103 Multilabel Reader (Perkin-Elmer, Wellesley, Mass.). Value of the wells containing cells without adding the test compounds was defined as 100% and the value of the wells containing no cells was defined as 0%. The concentrations of the test compound necessary for inhibiting the cell growth by 50% (i.e., an IC50 value) were calculated and are shown in Table 14.

[2] = test system: human urothelial cancer cell line SW780; assay: SW780 growth inhibition assay; assay type: cell-based; conditions: 3 days incubation, CellTiter-Glo
Procedure: In this assay, the growth inhibitory activities of test compounds in the human urothelial cancer cell line SW780 were measured. SW780 cells were maintained in RPMI-1640 medium containing 10% FBS, penicillin, and streptomycin in a 5% CO2 incubator (37° C.). To each well of a 96-well plate (Becton, Dickinson and Company, 353219), 100 μL of a SW780 cell suspension adjusted to a concentration of 3×10^4 cells/mL with the culture medium was added, and the cells were incubated overnight in a 5% CO2 incubator (37° C.). On the next day, 100 μL of Compound (1) or Halichondrin B in three-fold dilution series suspended in the culture medium was added to each well, and the resultant was incubated for 3 days in a 5% CO2 incubator (37° C.). Then, cell viability was determined by CellTiter-Glo® Luminescent Cell Viability Assay (Promega) with EnVision 2103 Multilabel Reader (Perkin-Elmer, Wellesley, Mass.). Value of the wells containing cells without adding the test compounds was defined as 100% and the value of the wells containing no cells was defined as 0%. The concentrations of the test compounds necessary for inhibiting the cell growth by 50% (i.e., an IC50 value) were calculated, and are shown in Table 16.

[3] = test system: α-SMA positive-CAFs in the FaDu subcutaneous model; assay: Effect on α-SMA positive-CAFs in the FaDu subcutaneous model (Test Example 10); assay type: in vivo, mice; conditions: two days after administration
Procedure: A human squamous cell carcinoma of the head and neck (SCCHN) cell line FaDu, which had been cultured in an RPMI-1640 medium containing 10% FBS, and penicillin and streptomycin, was adjusted to a concentration of 5×10^7 cells/mL with PBS to prepare a cell suspension. The cell suspension was inoculated in a volume of 100 μL into a subcutaneous part of a right flank of nude mice, 5 to 6 weeks of ages (CAnN.Cg-Foxnlnu/CrlCrlj, female, Charles River Laboratories Japan, Inc.). Ten days after cell inoculation, a test compound in saline with 100 μM of hydroxypropyl-β-cyclodextrin was intravenously administered at ½ MTD and MTD. The experiment was conducted on groups each consisting of 3 mice. Two days after administration, tumor samples were collected and fixed with IHC Zinc Fixative (BD Pharmingen) at 4° C. for 24 hr. Paraffin-embedded tissues were sectioned (3 μm), mounted on positively charged slides, and air-dried for 6 hr. Immunohistochemical staining of α-SMA was conducted using Ventana autostainer model Discover XT (Roche Diagnostics). Sections were deparaffinized, conditioned and the antigens were retrieved with proprietary buffers, EZPrep and CC1 (Ventana Medical Systems). Mouse anti-α-SMA monoclonal antibody conjugated with alkaline phosphatase (clone 1A4, Sigma) was applied at 5 μg/mL. Sections were incubated with the antibody for 6 hr. The detection was performed with RedMap kit (Ventana Medical Systems, Inc). Sections were dehydrated in graded ethanols, defatted in xylene replacement and covered with DPX (Merck KGaA). The serial tumor slices were deparaffinized and stained with Mayer's hematoxylin (Muto Pure Chemicals) for 1 min. Sections were dehydrated in graded ethanols, defatted in xylene replacement and covered with DPX (Merck KGaA).
Immunostained slides were scanned using Vectra 2 Automated Slide Imaging System (Perkin Elmer Inc.). The area of the α-SMA-positive region in the whole tumor was quantified by counting the α-SMA-positive objects using inForm 2 software (PerkinElmer Inc.). Area of the tumor region was measured by assessing the hematoxylin-staining area using in Form 2 software (PerkinElmer Inc.). The area of the α-SMA positive region was normalized by the area of the tumor region. A suppression rate of the α-SMA positive area of the test compound-dosing group was calculated with the below formula, and shown in Table 10.

[4] = test system: FaDu subcutaneous xenograft; assay: Antitumor effects in FaDu subcutaneous xenograft model in mice as monotherapy; assay type: in vivo
Procedure: A human squamous cell carcinoma of the head and neck (SCCHN) cell line FaDu, which had been cultured in an RPMI-1640 medium containing 10% FBS, and penicillin and streptomycin, was adjusted to a concentration of 4.8×10^7 cells/mL with Hanks' Balanced Salt Solution to prepare a cell suspension. The cell suspension was inoculated in a volume of 100 μL into a subcutaneous part of a right flank of nude mice, 7 weeks of ages (CAnN.Cg-Foxn1nu/CrlCrlj, female, Charles River Laboratories Japan Inc.).
On the basis of the volumes of tumors obtained on the first day of administration, the mice were grouped such that averages of the tumor volumes were substantially equal among the groups. Each test compound was dissolved in DMSO and a solution was stored at the freezer before use. Immediately before the administration, the stock solution was diluted in saline with 100 μM of hydroxypropyl-β-cyclodextrin. Each evaluation sample was intravenously administered at a maximum tolerable dose (MTD). Incidentally, the experiment was conducted on groups each consisting of 4 mice.

[5] = test system: human gastric cancer cell line NCI-N87; assay: NCI-N87 growth inhibition assay; assay type: cell-based; conditions: 3 days incubation, CellTiter-Glo
Procedure: as §1

| SMILES | IC50 [1] [nM] | IC50 [2] [nM] | Suppression rate of α-SMA positive area (%) ([3]; 0.10 mg/kg intravenously) | Suppression rate of α-SMA positive area (%) ([3]; 0.20 mg/kg intravenously) | Tumor Regression (%) ([4]; 0.2 mg/kg intravenously (MTD)) | IC50 [5] [nM] | Suppression rate of α-SMA positive area (%) ([3]; 0.025 mg/kg intravenously) | Suppression rate of α-SMA positive area (%) ([3]; 0.05 mg/kg intravenously) | Tumor Regression (%) ([4]; 0.05 mg/kg intravenously (MTD)) |
| --- | --- | --- | --- | --- | --- | --- | --- | --- | --- |
| C=C1C[C@@H]2CC[C@@]34C[C@H]5O[C@H]6[C@@H](O3)[C@H]3O[C@H](CC[C@@H]3O[C@H]6C5O4)CC(=O)O[C@@H]3[C@@H](C)[C@@H]4O[C@@H]5C[C@]6(C[C@@H]7O[C@]8(C[C@H](C)[C@@H]9O[C@H](CN)[C@H](O)C[C@@H]9O8)C[C@H](C)[C@@H]7O6)O[C@@H]5C[C@@H]4O[C@H]3C[C@H]3O[C@@H](CC[C@@H]1O2)C[C@@H](C)C3=C [Compound (1)] | 0.015 | 0.017 | 21 | 28 | 43 | 0.002 | – | – | – |
| C=C1C[C@@H]2CC[C@@]34C[C@H]5O[C@H]6[C@@H](O3)[C@H]3O[C@H](CC[C@@H]3O[C@H]6[C@H]5O4)CC(=O)O[C@@H]3[C@@H](C)[C@@H]4O[C@@H]5C[C@]6(C[C@@H]7O[C@]8(C[C@H](C)[C@@H]9O[C@H]([C@@H](O)C[C@@H](O)CO)C[C@@H]9O8)C[C@H](C)[C@@H]7O6)O[C@@H]5C[C@@H]4O[C@H]3C[C@H]3O[C@@H](CC[C@@H]1O2)C[C@@H](C)C3=C [Halichondrin B, reference compound] | 0.017 | 0.032 | – | – | – | 0.007 | 7 | 3 | 0 |
